From article PMC8201735 (BMC Pharmacology & Toxicology, 2021)
Where two headings read alike, the source gives them in different places.

Experiments:
subjects with T2DM [1] = assay: Surveillance for lactic acidosis: fasting plasma lactic acid concentration; assay type: in vivo, human
Experimental: The samples for acidosis analysis were collected at screening (following an overnight fast and prior to morning dose), once during the run-in phase, at baseline (Day- 1), mornings (prior to first dose and breakfast) of Days 1, 2, 3, and 4 (inpatient) and Days 6, 8, and 10 (outpatient) and Days 13 and 14 (inpatient). Subjects were not allowed to do rigorous exercise or physical labor during the treatment phase of the study and instructed to limit exercise 12 h before sampling.
(§1) Descriptive statistics were used to summarize baseline demographics, safety data, and pharmacokinetic parameters. Geometric mean and % CVb (between-subject coefficient of variation) were calculated for all pharmacokinetic parameters except tmax. Comparisons of placebo with each active dose of RE were assessed in terms of change from baseline in fasting plasma lactate acid using repeated measures analysis of covariance model. The model included terms for baseline measurement, visit, treatment and visit-by-treatment interaction. The same model was applied to change from baseline in weighted means of day-time, night-time and 0–24 h of blood pressures. Within group treatment comparison was performed using mixed model on log transformed Cmax and AUC (0-last).

subjects with T2DM [2] = assay: Oral glucose tolerance test (75 g): weighted mean plasma glucose and insulin; assay type: in vivo, human; settings: Placebo + Metformin
Experimental: Oral glucose tolerance testing was performed on Day 1 and Day 13 using a 75 g oral glucose solution. Blood samples for the measurement of insulin and glucose were taken immediately before drug dosing (within 5 min of drug dosing), and at 30 min, 1, 1.5, 2, 3, 4, and 6 h following drug dosing.

[3] = Plasma pharmacokinetics of metformin with and without RE; assay type: in vivo, human; settings: for AUC / Cmax: human, plasma, oral, geometric mean; for AUC: Metformin AUC (0-tau); for Cmax: Metformin Cmax
Experimental: as §1, with “PK analysis was conducted by […] (Chapel Hill, NC, USA), under the direction of Clinical Pharmacokinetics/Modelling and Simulation, GSK using the non-compartmental analysis Model 200 (for extra vascular administration) of WinNonlin Professional Edition version 4.1 (Pharsight Corporation, Mountain View, CA). […] Descriptive” for “Descriptive”, “0-24” for “0–24”

subjects with T2DM [4] = assay: Adverse event monitoring, RE co-administered with metformin for 13 days; assay type: in vivo, human
Source text: The study was comprised of three phases; run-in, randomization, and treatment. […] In treatment phase the patients were considered in two cohorts. […] The adverse events monitoring included recording of any adverse event (AE) and serious adverse event (SAE) reported or observed during the entire study and follow-up period. All the subjects were counseled to inform study staff of any AEs that occurred during the study. Any abnormal laboratory findings (e.g., clinical chemistry, hematology, and urinalysis) or other abnormal assessments (e.g., ECGs, vital signs, physical examination) that were judged by the investigator as clinically significant were recorded as AEs or SAE.

subjects with T2DM [5] = settings: RE 500 mg BID and metformin 500 mg BID for 3 days; cited from earlier work
subjects with T2DM [6] = assay: Oral glucose tolerance test (75 g): weighted mean plasma glucose and insulin; assay type: in vivo, human; settings: Day -1 (baseline); Placebo + Metformin
[7] = Fluid balance assessment (intake - urine output); assay type: in vivo, human; settings: Placebo + Metformin
Body weight = assay type: in vivo, human; settings: Placebo + Metformin
Experimental: Body weight measurement was performed at screening and during inpatient Days- 1, 2, 4, 8, 13, and 14.

[8] = Plasma pharmacokinetics of remogliflozin etabonate and its metabolites during metformin treatment; assay type: in vivo, human; settings: for AUC / Cmax / Tmax: human, plasma; for AUC: read-out: AUC(0-tau), geometric mean (%CVb); for Cmax: read-out: Cmax, geometric mean (%CVb)
Experimental: as §1, with “PK analysis was conducted by […] (Chapel Hill, NC, USA), under the direction of Clinical Pharmacokinetics/Modelling and Simulation, GSK using the non-compartmental analysis Model 200 (for extra vascular administration) of WinNonlin Professional Edition version 4.1 (Pharsight Corporation, Mountain View, CA). […] Descriptive” for “Descriptive”, “0-24” for “0–24”

[9] = Day 13, Metformin + Placebo group
[10] = Day 13 Metformin + RE 750 mg BID
[11] = Day -1 metformin alone, Metformin + Placebo group
[12] = Day -1 metformin alone, Metformin + RE 500 mg group
[13] = Day 13 Metformin + RE 500 mg BID
[14] = Day -1 metformin alone, Metformin + RE 750 mg group
[15] = Placebo BID + metformin, N = 17
[16] = oral, 500 mg, Day 1, after RE 500 mg BID + metformin, N = 16
[17] = oral, 500 mg, Day 13, after RE 500 mg BID + metformin, N = 15
[18] = oral, 750 mg, Day 1, after RE 750 mg BID + metformin, N = 17
[19] = oral, 750 mg, Day 13, after RE 750 mg BID + metformin, N = 16

CN(C)C(=N)N=C(N)N [Metformin, metformin, reference compound]
Fasting plasma lactic acid, maximum on-therapy absolute values, Mean (SD) (subjects with T2DM [1]; Placebo BID + metformin): 1.554 (0.5094) mmol/L | Fasting plasma lactic acid, maximum on-therapy change from baseline, Mean (SD) (subjects with T2DM [1]; Placebo BID + metformin): 0.460 (0.2289) mmol/L | Fasting plasma lactic acid change from baseline, Mean (SD) (subjects with T2DM [1]; Study Day 2, Placebo BID + metformin): 0.16 (0.266) mmol/L | Fasting plasma lactic acid change from baseline, Mean (SD) (subjects with T2DM [1]; Study Day 6, Placebo BID + metformin): 0.08 (0.288) mmol/L | Fasting plasma lactic acid change from baseline, Mean (SD) (subjects with T2DM [1]; Study Day 13, Placebo BID + metformin): 0.00 (0.304) mmol/L | Subjects with lactic acid greater than the upper limits of normal (ULN) at any time (subjects with T2DM [1]; while receiving metformin alone, not sustained, minimally above ULN): four | Weighted mean plasma glucose following OGTT, Mean (SD) (subjects with T2DM [2]; Day 1 (baseline)): 12.65 (3.306) mmol/L | Weighted mean plasma insulin following OGTT, Mean (SD) (subjects with T2DM [2]; Day 13): 162.97(97.374) pmol/L | Weighted mean plasma glucose, change from baseline, Mean (SD) (subjects with T2DM [2]): −0.10 (1.572) mmol/L | Weighted mean plasma insulin, change from baseline, Mean (SD) (subjects with T2DM [2]): −13.88(42.349) pmol/L | Metformin Cmax, geometric mean [3, 9]: 2041 ng/mL | Metformin tmax, median [3, 9]: 2.5 h | Metformin Cmax, geometric mean [3, 10]: 1695 ng/mL | Metformin tmax, median [3, 10]: 2.0 h | Metformin tmax, median [3, 11]: 2.0 h | Metformin tmax, median [3, 12]: 3.0 h | AUC [3, 9]: 14000 ng·h/mL | AUC [3, 13]: 14700 ng·h/mL | AUC [3, 10]: 11400 ng·h/mL | AUC [3, 11]: 12300 ng·h/mL | AUC [3, 12]: 13900 ng·h/mL | AUC [3, 14]: 11300 ng·h/mL | Cmax [3, 13]: 2170 ng/mL | Cmax [3, 11]: 1970 ng/mL | Cmax [3, 12]: 2160 ng/mL | Cmax [3, 14]: 1760 ng/mL | Any AE (subjects with T2DM [4]; Placebo BID + metformin >=2000 mg/day, 13 days, N = 17): 3 (18%) N(%) | Diarrhoea (subjects with T2DM [4]; [15]): 1 (6%) N(%) | Dizziness (subjects with T2DM [4]; [15]): 0 N(%) | Dyslipidemia (subjects with T2DM [4]; [15]): 0 N(%) | Supraventricular tachycardia (subjects with T2DM [4]; [15]): 0 N(%) | Thirst (subjects with T2DM [4]; [15]): 1 (6%) N(%) | Vomiting (subjects with T2DM [4]; [15]): 0 N(%) | Subjects with hypoglycemic laboratory events (subjects with T2DM [4]; placebo + metformin group, mild, resolved without intervention): one | Effect of metformin on the pharmacokinetics of RE or its metabolites (subjects with T2DM [5]): no effect | Weighted mean plasma insulin following OGTT, Mean (SD) (subjects with T2DM [6]): 176.85(104.735) pmol/L | Change in fluid balance, Mean (SD) ([7]; Day 2): 203.5 (999.83) ml | Change in fluid balance, Mean (SD) ([7]; Day 13): −42.0 (1262.56) ml | Change from baseline in body weight, Mean (SD) (Body weight; Day 2): −0.70 (0.679) kg | Change from baseline in body weight, Mean (SD) (Body weight; Day 14): −1.02 (0.845) kg

Cc1c(Cc2ccc(OC(C)C)cc2)c(O[C@@H]2O[C@H](CO)[C@@H](O)[C@H](O)[C@H]2O)nn1C(C)C [Remogliflozin, remogliflozin]
AUC(0-tau) accumulation ratio Day 13 versus Day 1, point estimate (90% CI) ([8]; RE 500 mg + Metformin): 1.00 (0.907–1.10) | AUC(0-tau) accumulation ratio Day 13 versus Day 1, point estimate (90% CI) ([8]; RE 500 mg + Metformin, listed as remogliflozin): 1.00 (0.91, 1.10) | AUC(0-tau) accumulation ratio Day 13 versus Day 1, point estimate (90% CI) ([8]; RE 750 mg + Metformin): 0.82 (0.755–0.899) | AUC(0-tau) accumulation ratio Day 13 versus Day 1, point estimate (90% CI) ([8]; RE 750 mg + Metformin, listed as remogliflozin): 0.82 (0.755, 0.899) | AUC [8, 16]: 4890 ng·h/mL | Cmax [8, 16]: 2000 ng/mL | Tmax ([8]; oral, 500 mg, Day 1, after RE 500 mg BID + metformin, N = 16, read-out: tmax, median (range)): 0.77 h | AUC [8, 17]: 4930 ng·h/mL | Cmax [8, 17]: 1490 ng/mL | Tmax ([8]; oral, 500 mg, Day 13, after RE 500 mg BID + metformin, N = 15, read-out: tmax, median (range)): 3 h | Tmax ([8]; oral, 500 mg, RE 500 mg group, read-out: Time of peak concentrations (range)): 0.5 to 6 h | AUC [8, 18]: 8520 ng·h/mL | Cmax [8, 18]: 4010 ng/mL | Tmax ([8]; oral, 750 mg, Day 1, after RE 750 mg BID + metformin, N = 17, read-out: tmax, median (range)): 0.75 h | AUC [8, 19]: 7000 ng·h/mL | Cmax [8, 19]: 2510 ng/mL | Tmax ([8]; oral, 750 mg, Day 13, after RE 750 mg BID + metformin, N = 16, read-out: tmax, median (range)): 1.3 h | Tmax ([8]; po, after concomitant oral administration of RE with metformin (discussion), read-out: Time of peak concentration (range)): 0.5 to 4 h
